The values that follow come from ChEMBL document CHEMBL1156495 (J Biol Chem, 2007).

Calls of active or inactive are those of the source. No cut-off for these calls is given here. Residues, ends and D or L forms follow the SMILES beside them.

The test system of one assay is Plasma. In words: Anticoagulant activity in human citreated plasma assessed as prolongation of fibrinogen clotting time. In kind it is functional, cell-free.
Assay [1] is filed under the species Homo sapiens. In words: Inhibition of amidolytic activity of human alpha-thrombin upto 24 hrs by RP-HPLC.
The species entered for assay [2] is Homo sapiens. In words: Inhibition of amidolytic activity of human alpha-thrombin after 60 mins by RP-HPLC.
Assay [3] has as its target Urokinase-type plasminogen activator (Homo sapiens) (UniProt P00749). In words: Inhibition of human urokinase at 1 uM.
The species named for assay [4] is Homo sapiens. In words: Inhibition of human alpha-thrombin at 1 uM.
Assay [5] concerns the target Plasminogen (Homo sapiens) (UniProt P00747). In words: Inhibition of human plasmin at 1 uM.
Assay [6] deals with Tissue-type plasminogen activator (Homo sapiens) (UniProt P00750). In words: Inhibition of human tissue plasminogen activator at 1 uM.
Assay [7] deals with Vitamin K-dependent protein C (Homo sapiens) (UniProt P04070). In words: Inhibition of human Activated protein C at 1 uM.
Assay [8] addresses T1, Coagulation factor XII (Homo sapiens) (UniProt P00748).
T1 sequence (whole entry): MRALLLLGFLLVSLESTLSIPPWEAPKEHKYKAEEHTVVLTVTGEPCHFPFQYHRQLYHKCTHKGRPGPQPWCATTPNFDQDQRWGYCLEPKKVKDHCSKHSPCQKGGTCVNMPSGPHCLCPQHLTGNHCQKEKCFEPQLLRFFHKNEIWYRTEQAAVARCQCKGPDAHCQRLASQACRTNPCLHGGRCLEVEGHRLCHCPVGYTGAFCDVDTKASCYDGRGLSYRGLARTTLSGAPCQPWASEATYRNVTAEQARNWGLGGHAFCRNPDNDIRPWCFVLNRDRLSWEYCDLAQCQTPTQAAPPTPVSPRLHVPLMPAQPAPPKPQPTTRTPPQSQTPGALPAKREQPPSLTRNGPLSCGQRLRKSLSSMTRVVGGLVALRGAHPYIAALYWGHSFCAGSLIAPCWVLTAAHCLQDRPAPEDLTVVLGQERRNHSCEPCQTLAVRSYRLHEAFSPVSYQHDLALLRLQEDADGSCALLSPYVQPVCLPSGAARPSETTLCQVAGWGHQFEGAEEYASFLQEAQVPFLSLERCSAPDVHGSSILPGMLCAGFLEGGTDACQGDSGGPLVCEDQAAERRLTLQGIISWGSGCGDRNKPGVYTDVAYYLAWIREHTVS
In words: Inhibition of human factor 12a at 1 uM.

Assay [9] addresses Coagulation factor XI (Homo sapiens) (UniProt P03951). In words: Inhibition of human factor 11a at 1 uM.
The target of assay [10] is Coagulation factor X (Homo sapiens) (UniProt P00742). In words: Inhibition of human factor 10a at 1 uM.
The target of assay [11] is Coagulation factor IX (Homo sapiens) (UniProt P00740). In words: Inhibition of human factor 9a at 1 uM.
Assay [12] deals with T2, Coagulation factor VII (Homo sapiens) (UniProt P08709).
T2 sequence (whole entry): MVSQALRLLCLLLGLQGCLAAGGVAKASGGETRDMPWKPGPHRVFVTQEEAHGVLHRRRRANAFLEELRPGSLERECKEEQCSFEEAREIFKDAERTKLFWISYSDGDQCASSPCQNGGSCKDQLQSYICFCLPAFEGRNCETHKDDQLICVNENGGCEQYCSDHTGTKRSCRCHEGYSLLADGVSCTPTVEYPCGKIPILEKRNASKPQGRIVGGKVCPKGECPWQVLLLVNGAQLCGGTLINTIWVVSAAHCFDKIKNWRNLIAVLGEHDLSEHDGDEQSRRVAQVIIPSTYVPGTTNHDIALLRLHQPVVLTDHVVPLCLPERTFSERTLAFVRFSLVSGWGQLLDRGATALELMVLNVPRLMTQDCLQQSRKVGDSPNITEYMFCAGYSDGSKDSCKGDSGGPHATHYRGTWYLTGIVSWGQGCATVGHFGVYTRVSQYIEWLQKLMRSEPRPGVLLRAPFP
In words: Inhibition of human factor 7a at 1 uM.

The target in assay [13] is Plasma kallikrein (Homo sapiens) (UniProt P03952). In words: Inhibition of human kallikrein at 1 uM.
For assay [14], the species on record is Homo sapiens. In words: Inhibition of human chymotrypsin at 1 uM.
Assay [15] deals with T3, Trypsin (Homo sapiens) (UniProt P07477+P07478+P35030). In words: Inhibition of human trypsin at 1 uM. In kind it is protein assay.
Assay [16] deals with Plasminogen (Homo sapiens) (UniProt P00747). In words: Inhibition of human plasmin at 100 uM.
For assay [17], the target named is T3, Trypsin (Homo sapiens). In words: Inhibition of human trypsin at 100 uM. In kind it is protein assay.
For assay [18], the target named is Coagulation factor XI (Homo sapiens) (UniProt P03951). In words: Inhibition of human factor 11a at 100 uM.
Sequence of Coagulation factor XI (Homo sapiens) (P03951 19-387 limits assumed): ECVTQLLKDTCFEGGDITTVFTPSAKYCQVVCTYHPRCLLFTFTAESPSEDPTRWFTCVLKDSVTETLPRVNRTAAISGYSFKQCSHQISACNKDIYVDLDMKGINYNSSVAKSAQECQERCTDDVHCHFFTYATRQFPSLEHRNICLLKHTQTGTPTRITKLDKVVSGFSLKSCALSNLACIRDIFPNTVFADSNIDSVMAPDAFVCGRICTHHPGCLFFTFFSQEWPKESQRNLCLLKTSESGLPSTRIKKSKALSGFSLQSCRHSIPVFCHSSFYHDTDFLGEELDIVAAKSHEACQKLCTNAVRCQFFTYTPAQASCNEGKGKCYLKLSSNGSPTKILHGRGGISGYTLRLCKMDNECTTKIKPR
Sequence of Coagulation factor XI (Homo sapiens) (P03951 388-625 limits assumed): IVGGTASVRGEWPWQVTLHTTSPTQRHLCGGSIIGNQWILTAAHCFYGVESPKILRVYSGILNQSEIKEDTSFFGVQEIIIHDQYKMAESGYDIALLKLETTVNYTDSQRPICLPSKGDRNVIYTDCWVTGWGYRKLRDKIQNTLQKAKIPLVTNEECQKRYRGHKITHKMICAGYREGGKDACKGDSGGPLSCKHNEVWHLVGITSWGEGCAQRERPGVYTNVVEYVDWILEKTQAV

Sequence of Plasminogen (Homo sapiens) (P00747 97-580 limits assumed): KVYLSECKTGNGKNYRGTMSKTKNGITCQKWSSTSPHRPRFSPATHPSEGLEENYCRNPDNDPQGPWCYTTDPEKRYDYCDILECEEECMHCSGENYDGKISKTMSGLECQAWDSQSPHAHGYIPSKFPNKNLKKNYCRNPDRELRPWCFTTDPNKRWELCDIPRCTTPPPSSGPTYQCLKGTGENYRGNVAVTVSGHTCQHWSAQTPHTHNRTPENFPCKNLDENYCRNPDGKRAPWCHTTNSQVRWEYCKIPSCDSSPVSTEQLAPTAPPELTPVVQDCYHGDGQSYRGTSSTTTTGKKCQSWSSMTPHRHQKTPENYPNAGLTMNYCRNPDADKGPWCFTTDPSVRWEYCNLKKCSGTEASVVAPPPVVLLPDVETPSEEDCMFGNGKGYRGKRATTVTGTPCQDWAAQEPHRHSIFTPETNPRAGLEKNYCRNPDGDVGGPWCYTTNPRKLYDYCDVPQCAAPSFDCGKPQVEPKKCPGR
Sequence of Plasminogen (Homo sapiens) (P00747 581-810 limits assumed): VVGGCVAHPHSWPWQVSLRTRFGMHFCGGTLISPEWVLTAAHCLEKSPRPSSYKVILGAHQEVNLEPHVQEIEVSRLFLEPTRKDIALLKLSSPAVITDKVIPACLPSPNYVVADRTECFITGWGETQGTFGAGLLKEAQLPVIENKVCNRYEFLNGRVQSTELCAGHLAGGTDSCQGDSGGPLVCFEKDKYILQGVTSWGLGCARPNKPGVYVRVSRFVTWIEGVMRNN
Sequence of Vitamin K-dependent protein C (Homo sapiens) (P04070 43-197 limits assumed): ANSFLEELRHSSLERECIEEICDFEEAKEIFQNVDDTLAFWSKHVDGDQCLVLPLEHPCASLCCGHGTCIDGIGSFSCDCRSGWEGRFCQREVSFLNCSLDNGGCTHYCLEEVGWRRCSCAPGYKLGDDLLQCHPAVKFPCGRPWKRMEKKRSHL
Sequence of Vitamin K-dependent protein C (Homo sapiens) (P04070 212-461 limits assumed): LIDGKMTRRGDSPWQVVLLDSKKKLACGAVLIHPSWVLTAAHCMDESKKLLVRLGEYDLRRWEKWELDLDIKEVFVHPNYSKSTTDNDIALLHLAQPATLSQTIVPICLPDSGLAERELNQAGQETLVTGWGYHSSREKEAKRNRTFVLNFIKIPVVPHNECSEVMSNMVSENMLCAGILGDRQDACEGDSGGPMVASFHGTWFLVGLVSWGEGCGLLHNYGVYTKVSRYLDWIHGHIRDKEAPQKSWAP
Sequence of Tissue-type plasminogen activator (Homo sapiens) (P00750 36-562 limits assumed): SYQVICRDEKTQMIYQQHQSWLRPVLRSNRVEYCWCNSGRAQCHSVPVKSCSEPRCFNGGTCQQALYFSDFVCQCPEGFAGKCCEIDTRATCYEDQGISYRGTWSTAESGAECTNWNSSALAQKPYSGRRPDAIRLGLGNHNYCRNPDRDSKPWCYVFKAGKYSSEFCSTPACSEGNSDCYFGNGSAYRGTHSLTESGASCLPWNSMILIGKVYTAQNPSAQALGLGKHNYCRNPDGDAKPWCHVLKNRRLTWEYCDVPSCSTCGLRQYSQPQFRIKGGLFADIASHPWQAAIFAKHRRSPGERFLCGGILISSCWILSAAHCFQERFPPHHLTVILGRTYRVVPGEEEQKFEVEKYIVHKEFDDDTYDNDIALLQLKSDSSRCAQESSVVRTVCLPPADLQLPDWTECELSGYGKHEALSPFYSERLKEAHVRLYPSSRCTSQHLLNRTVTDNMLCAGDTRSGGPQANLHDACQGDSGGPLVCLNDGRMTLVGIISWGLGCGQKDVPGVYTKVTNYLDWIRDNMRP
Sequence of Coagulation factor IX (Homo sapiens) (P00740 47-191 limits assumed): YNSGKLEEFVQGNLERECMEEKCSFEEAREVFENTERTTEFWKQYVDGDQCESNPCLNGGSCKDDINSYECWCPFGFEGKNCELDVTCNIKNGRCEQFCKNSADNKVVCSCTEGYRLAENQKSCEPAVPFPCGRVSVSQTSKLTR
Sequence of Coagulation factor IX (Homo sapiens) (P00740 227-461 limits assumed): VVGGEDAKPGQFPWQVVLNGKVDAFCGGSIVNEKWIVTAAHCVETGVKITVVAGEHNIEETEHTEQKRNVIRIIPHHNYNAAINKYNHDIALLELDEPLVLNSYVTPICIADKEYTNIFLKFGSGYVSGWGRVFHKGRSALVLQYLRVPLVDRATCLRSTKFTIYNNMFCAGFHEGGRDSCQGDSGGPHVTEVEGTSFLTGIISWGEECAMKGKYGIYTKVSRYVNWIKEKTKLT
Sequence of Plasma kallikrein (Homo sapiens) (P03952 20-390 limits assumed): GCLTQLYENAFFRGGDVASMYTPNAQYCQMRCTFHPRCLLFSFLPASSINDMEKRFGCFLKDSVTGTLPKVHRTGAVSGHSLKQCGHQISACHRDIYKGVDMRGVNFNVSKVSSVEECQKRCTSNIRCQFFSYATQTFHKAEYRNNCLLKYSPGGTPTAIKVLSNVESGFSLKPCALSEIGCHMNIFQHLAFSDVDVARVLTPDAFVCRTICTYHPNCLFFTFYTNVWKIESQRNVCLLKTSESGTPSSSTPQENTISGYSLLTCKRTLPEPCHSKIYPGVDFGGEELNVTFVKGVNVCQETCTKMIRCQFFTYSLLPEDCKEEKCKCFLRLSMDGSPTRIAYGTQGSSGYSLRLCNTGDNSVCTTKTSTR
Sequence of Plasma kallikrein (Homo sapiens) (P03952 391-638 limits assumed): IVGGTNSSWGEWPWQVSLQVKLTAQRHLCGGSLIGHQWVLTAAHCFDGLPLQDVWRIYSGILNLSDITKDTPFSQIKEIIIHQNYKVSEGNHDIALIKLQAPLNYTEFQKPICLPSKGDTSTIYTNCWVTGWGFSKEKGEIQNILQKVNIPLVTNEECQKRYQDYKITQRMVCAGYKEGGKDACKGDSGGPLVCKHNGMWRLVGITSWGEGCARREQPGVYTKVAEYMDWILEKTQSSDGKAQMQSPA
Sequence of Coagulation factor X (Homo sapiens) (P00742 41-179 limits assumed): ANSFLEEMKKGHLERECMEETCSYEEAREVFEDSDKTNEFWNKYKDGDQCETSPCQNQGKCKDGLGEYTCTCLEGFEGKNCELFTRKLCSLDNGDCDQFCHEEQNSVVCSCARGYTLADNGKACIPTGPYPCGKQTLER
Sequence of Coagulation factor X (Homo sapiens) (P00742 235-488 limits assumed): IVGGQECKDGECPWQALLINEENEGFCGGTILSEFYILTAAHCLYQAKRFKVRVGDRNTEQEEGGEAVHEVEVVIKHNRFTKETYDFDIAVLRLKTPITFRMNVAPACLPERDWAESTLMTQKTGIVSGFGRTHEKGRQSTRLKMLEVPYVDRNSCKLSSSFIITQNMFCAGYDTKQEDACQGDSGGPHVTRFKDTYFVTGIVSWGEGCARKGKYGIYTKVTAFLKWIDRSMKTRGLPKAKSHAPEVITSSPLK

With `CC[C@H](C)[C@H](NC(=O)[C@H](C)NC(=O)[C@H](CCC(=O)O)NC(=O)[C@H](Cc1ccccc1)NC(=O)[C@H](CC(=O)O)NC(=O)[C@H](Cc1ccccc1)NC(=O)[C@@H]1CCCN1C(=O)[C@@H]1CCCN1C(=O)[C@H](C)NC(=O)[C@@H](NC(=O)[C@H](CCCCN)NC(=O)[C@H](Cc1cnc[nH]1)NC(=O)[C@H](CCSC)NC(=O)[C@H](CCCCN)NC(=O)[C@@H]1CCCN1C(=O)[C@@H](N)CCC(=O)O)[C@@H](C)O)C(=O)N1CCC[C@H]1C(=O)N[C@@H](CCC(=O)O)C(=O)N[C@@H](CCC(=O)O)C(=O)N[C@@H](Cc1ccc(O)cc1)C(=O)N[C@@H](CC(C)C)C(=O)N[C@@H](CC(=O)O)C(=O)N[C@@H](CC(=O)O)C(=O)N[C@@H](CCC(=O)O)C(=O)N[C@@H](CO)C(=O)O`, in the assay on Plasma, the Activity entry was “Dose-dependent effect”. In addition, the result in the assay filed under Homo sapiens [1] was inactive. Besides, the outcome in the assay filed under Homo sapiens [2] was Active.

The inhibition is the change of the read-out against control, counted positive when it falls. Read a low inhibition as a weak effect. Turning to `CC[C@H](C)[C@H](NC(=O)[C@H](C)NC(=O)[C@H](CCC(=O)O)NC(=O)[C@H](Cc1ccccc1)NC(=O)[C@H](CC(=O)O)NC(=O)[C@H](Cc1ccccc1)NC(=O)[C@@H]1CCCN1C(=O)[C@@H]1CCCN1C(=O)[C@H](C)NC(=O)[C@@H](NC(=O)[C@H](CCCCN)NC(=O)[C@H](Cc1cnc[nH]1)NC(=O)[C@H](CCSC)NC(=O)[C@H](CCCCN)NC(=O)[C@@H]1CCCN1C(=O)[C@H](CCC(=O)O)NC(=O)[C@H](C)NC(=O)[C@@H](NC(=O)[C@H](CC(=O)O)NC(=O)CNC(=O)[C@H](CCC(N)=O)NC(=O)[C@H](CC(=O)O)NC(=O)[C@@H](N)CO)C(C)C)[C@@H](C)O)C(=O)N1CCC[C@H]1C(=O)N[C@@H](CCC(=O)O)C(=O)N[C@@H](CCC(=O)O)C(=O)N[C@@H](Cc1ccc(O)cc1)C(=O)N[C@@H](CC(C)C)C(=O)N[C@@H](CC(=O)O)C(=O)N[C@@H](CC(=O)O)C(=O)N[C@@H](CCC(=O)O)C(=O)N[C@@H](CO)C(=O)O`, in the assay with Plasma, the Activity result is “Dose-dependent effect”. In addition, in the assay filed under Homo sapiens [1], the outcome was inactive. The outcome in the assay listed under Homo sapiens [2] and in the assay filed under Homo sapiens [4] was Active. Also, the inhibition in [3], in [5], in assay [6], in [7], in [8] and in assay [9] was less than 5% throughout. Moreover, the inhibition (in [10]; in assay [11]; in assay [12]; in assay [13]; in the assay listed under Homo sapiens [14]; at Trypsin (Homo sapiens) [15]) was less than 5% each time. Also, the inhibition (in assay [16]; against Trypsin (Homo sapiens) [17]; in assay [18]) was 20% in each case.

Regarding `CC[C@H](C)[C@H](NC(=O)[C@H](C)NC(=O)[C@H](CCC(=O)O)NC(=O)[C@H](Cc1ccccc1)NC(=O)[C@H](CC(=O)O)NC(=O)[C@H](Cc1ccccc1)NC(=O)[C@@H]1CCCN1C(=O)[C@@H]1CCCN1C(=O)[C@H](C)N)C(=O)N1CCC[C@H]1C(=O)N[C@@H](CCC(=O)O)C(=O)N[C@@H](CCC(=O)O)C(=O)N[C@@H](Cc1ccc(O)cc1)C(=O)N[C@@H](CC(C)C)C(=O)N[C@@H](CC(=O)O)C(=O)N[C@@H](CC(=O)O)C(=O)N[C@@H](CCC(=O)O)C(=O)N[C@@H](CO)C(=O)O` (H-APPFDFEAIPEEYLDDES-OH), the Activity result in the assay on Plasma is “Dose-dependent effect”.
